{
  "source": "the supplement of paper PMC10307832",
  "assay_in_all_cases": "relative viability (nuclei count vs DMSO), 5 days (fraction); higher = more cells survive",
  "key": {"Motesanib + Vorinostat": {"compound": "CC1(C)CNc2cc(NC(=O)c3cccnc3NCc3ccncc3)ccc21 [Motesanib] + O=C(CCCCCCC(=O)Nc1ccccc1)NO [Vorinostat] (partner 1 µM)", "in_short": "(§1)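 Five library-drug doses in √10 steps were combined with a fixed anchor-drug dose, or a single drug was given alone, by pin tool to lung cancer cell lines in 1536-well plates the day after seeding. Nuclei were stained and counted after 5 days. Relative viability is the nuclei count in treated wells over that in vehicle wells, taken as the median of duplicate plates.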"}, "[1]": {"compound": "C[C@@]1(C(=O)Nc2ccc(F)nc2)CCCN1c1nc(Nc2cc(C3CC3)n[nH]2)c2cccn2n1 + CC(=O)c1c(C)c2cnc(Nc3ccc(N4CCNCC4)cn3)nc2n(C2CCCC2)c1=O [Palbociclib] (partner 0.5 µM)", "in_short": "as §1"}, "[2]": {"compound": "C[C@@]1(C(=O)Nc2ccc(F)nc2)CCCN1c1nc(Nc2cc(C3CC3)n[nH]2)c2cccn2n1 + COc1cccc2cc(-c3nc([C@H]4CC[C@H](C(=O)O)CC4)n4ncnc(N)c34)[nH]c12 [OSI-027] (partner 0.5 µM)", "in_short": "as §1"}, "[3]": {"compound": "C[C@@]1(C(=O)Nc2ccc(F)nc2)CCCN1c1nc(Nc2cc(C3CC3)n[nH]2)c2cccn2n1 + O=C(CCCCCCC(=O)Nc1ccccc1)NO [Vorinostat] (partner 1 µM)", "in_short": "as §1"}},
  "data": [
    {"cell line": "UMC-11", "values": [
      {"measurement": "relative viability", "setting": "Motesanib + Vorinostat; first compound 0.01 µM", "result": 0.44},
      {"measurement": "relative viability", "setting": "Motesanib + Vorinostat; first compound 0.03162 µM", "result": 0.438},
      {"measurement": "relative viability", "setting": "Motesanib + Vorinostat; first compound 0.1 µM", "result": 0.345},
      {"measurement": "relative viability", "setting": "Motesanib + Vorinostat; first compound 0.3162 µM", "result": 0.426},
      {"measurement": "relative viability", "setting": "Motesanib + Vorinostat; first compound 1 µM", "result": 0.476},
      {"measurement": "relative viability", "setting": "[1]; first compound 0.04 µM", "result": 0.31},
      {"measurement": "relative viability", "setting": "[1]; first compound 0.1265 µM", "result": 0.312},
      {"measurement": "relative viability", "setting": "[1]; first compound 0.4 µM", "result": 0.32},
      {"measurement": "relative viability", "setting": "[1]; first compound 1.265 µM", "result": 0.273},
      {"measurement": "relative viability", "setting": "[2]; first compound 0.04 µM", "result": 0.531},
      {"measurement": "relative viability", "setting": "[2]; first compound 0.1265 µM", "result": 0.416},
      {"measurement": "relative viability", "setting": "[2]; first compound 0.4 µM", "result": 0.485},
      {"measurement": "relative viability", "setting": "[2]; first compound 1.265 µM", "result": 0.37},
      {"measurement": "relative viability", "setting": "[3]; first compound 0.04 µM", "result": 0.398},
      {"measurement": "relative viability", "setting": "[3]; first compound 0.1265 µM", "result": 0.432},
      {"measurement": "relative viability", "setting": "[3]; first compound 0.4 µM", "result": 0.359},
      {"measurement": "relative viability", "setting": "[3]; first compound 1.265 µM", "result": 0.258}
    ]}
  ]
}
